# Results as given in BindingDB's records for doi:10.1021/jm050175p (Wyeth Research, 2005).
# Target: Tyrosine-protein kinase ABL1 (Homo sapiens, UniProt P00519)
# Experiment: Homogeneous Time-resolved Fluorescence (HTRF) Assay
# Tyrosine-protein kinase ABL1, sequence (P00519 whole entry): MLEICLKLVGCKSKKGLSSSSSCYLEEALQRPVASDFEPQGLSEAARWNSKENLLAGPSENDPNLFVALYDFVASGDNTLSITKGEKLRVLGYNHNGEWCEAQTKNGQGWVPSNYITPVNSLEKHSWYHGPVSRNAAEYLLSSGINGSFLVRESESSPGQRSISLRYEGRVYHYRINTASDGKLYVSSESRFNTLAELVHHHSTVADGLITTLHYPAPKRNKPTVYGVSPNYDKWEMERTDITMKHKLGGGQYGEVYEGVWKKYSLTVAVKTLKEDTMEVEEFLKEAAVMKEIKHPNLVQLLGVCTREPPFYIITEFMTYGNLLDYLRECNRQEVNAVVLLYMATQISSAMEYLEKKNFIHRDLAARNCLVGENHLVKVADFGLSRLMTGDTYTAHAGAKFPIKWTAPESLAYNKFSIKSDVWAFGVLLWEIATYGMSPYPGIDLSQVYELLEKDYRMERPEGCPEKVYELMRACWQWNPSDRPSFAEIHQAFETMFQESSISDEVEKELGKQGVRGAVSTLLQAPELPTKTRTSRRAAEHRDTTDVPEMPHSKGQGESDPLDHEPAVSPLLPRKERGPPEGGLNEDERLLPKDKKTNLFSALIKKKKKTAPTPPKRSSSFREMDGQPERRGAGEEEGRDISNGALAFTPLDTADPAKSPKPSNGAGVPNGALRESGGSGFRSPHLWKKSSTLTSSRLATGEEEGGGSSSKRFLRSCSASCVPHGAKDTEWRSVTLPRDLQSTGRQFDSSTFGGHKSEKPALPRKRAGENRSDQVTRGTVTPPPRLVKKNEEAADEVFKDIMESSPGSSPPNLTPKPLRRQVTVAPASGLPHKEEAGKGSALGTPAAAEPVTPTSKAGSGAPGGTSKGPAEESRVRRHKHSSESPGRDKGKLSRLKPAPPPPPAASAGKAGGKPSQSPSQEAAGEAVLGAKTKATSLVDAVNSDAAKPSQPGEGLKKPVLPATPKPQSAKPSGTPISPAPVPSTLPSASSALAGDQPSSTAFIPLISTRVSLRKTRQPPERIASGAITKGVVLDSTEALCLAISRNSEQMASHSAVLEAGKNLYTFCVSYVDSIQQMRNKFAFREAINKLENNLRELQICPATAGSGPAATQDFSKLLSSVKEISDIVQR
row,SMILES,IC50
1,"CCOc1cc(Nc2c(C#N)cnc3cc(OCC4CCN(C)CC4)c(OC)cc23)c(Cl)cc1Cl [4-[(2,4-Dichloro-5-ethoxyphenyl)amino]-6-methoxy-7-[(1-methylpiperidin-4-yl)methoxy]quinoline-3-carbonitrile]",1500 nM
2,"COc1cc(Nc2c(C#N)cnc3cc(OCC4CCCCN4C)c(OC)cc23)c(Cl)cc1Cl (centres undefined) [4-[(2,4-dichloro-5-methoxyphenyl)amino]-6-methoxy-7-[(1-methylpiperidin-2-yl)methoxy]quinoline-3-carbonitrile]",56 nM
3,"COc1cc(Nc2c(C#N)cnc3cc(OCC4CCCN(C)C4)c(OC)cc23)c(Cl)cc1Cl (centres undefined) [4-[(2,4-dichloro-5-methoxyphenyl)amino]-6-methoxy-7-[(1-methylpiperidin-3-yl)methoxy]quinoline-3-carbonitrile]",4.6 nM
4,"COc1cc(Nc2c(C#N)cnc3cc(OC4CCN(C)CC4)c(OC)cc23)c(Cl)cc1Cl [4-[(2,4-dichloro-5-methoxyphenyl)amino]-6-methoxy-7-[(1-methylpiperidin-4-yl)oxy]quinoline-3-carbonitrile]",89 nM
